The source of these data is patent publication US5939385A, “Transglutaminase cross-linkable polypeptides and methods relating thereto” (ZymoGenetics, Inc., priority 1995, dated 1999).

This test addresses T1, recombinant Factor XIII (rFXIIIa) (Homo sapiens, UniProt P00488).
T1 construct: made in house
T1 sequence (P00488 39-732 limits assumed): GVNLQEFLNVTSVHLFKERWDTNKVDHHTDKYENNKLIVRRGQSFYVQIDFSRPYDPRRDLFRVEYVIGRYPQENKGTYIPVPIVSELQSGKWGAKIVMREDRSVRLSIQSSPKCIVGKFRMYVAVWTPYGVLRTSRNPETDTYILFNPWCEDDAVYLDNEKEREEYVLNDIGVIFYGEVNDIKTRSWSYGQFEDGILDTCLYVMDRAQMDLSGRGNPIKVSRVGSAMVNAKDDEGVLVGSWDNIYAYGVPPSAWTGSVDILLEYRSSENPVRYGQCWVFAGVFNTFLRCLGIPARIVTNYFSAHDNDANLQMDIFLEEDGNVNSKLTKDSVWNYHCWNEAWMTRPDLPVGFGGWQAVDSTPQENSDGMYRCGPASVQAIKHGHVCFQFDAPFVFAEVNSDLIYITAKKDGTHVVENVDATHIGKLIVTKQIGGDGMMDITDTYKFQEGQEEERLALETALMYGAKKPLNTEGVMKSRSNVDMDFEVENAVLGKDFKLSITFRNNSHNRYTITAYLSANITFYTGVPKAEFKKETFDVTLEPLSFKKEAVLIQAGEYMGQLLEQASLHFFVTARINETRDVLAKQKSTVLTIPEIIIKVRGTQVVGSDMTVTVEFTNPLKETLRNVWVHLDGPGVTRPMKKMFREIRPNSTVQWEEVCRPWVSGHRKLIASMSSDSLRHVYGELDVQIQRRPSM
Put plainly: Factor XIII cross-linking assay of test polypeptide substrates (HPLC area % vs time). As to conditions: for Monomer Consumption d[S]/dt (rate of substrate utilization) / Crosslinking d(2[S-])/dt (rate of monomer incorporation into dimers) / Hydrolysis d[-NH3]/dt (hydrolysis = deamidation): initial rate, 2mM substrate, 40 ug/ml rFXIIIa (preactivated), 2.0 U/ml Thrombin, 2.5 mM CaCl2, pH 7.4; for Monomer Consumption d[S]/dt (rate of substrate utilization): 125 mM NaCl, 50 mM TrisHCl; for Hydrolysis %: share of hydrolysis (deamidation) relative to hydrolysis plus crosslinking, same reaction conditions. Type of test: biochemical. The protocol:
Polypeptides are screened for the ability to form transglutaminase-catalyzed cross-links using a cross-linking assay as described in more detail below. […] Each reaction receives 50 mM CaCl2 to a final concentration of 2.5 mM. A negative control for each test substrate is also prepared in which the reaction lacks a transglutaminase (e.g., Factor XIII). A positive control of the fibrinogen polypeptide (The-Ile-Gly-Glu-Gly-Gln-Gln-His-His-Leu-[…]-Gln-Ala-Gly-Asp-Val) is used for each set of reactions. The reactions are initiated by the addition of 40 μg/ml of transglutaminase (e.g., recombinant Factor XIII) followed by 0.1 unit of bovine thrombin (Enzyme Research Laboratories, Inc., South Bend, Ind.) to each solution, except the negative controls. The reactions are incubated in a 37° C. water bath. A time course of 10 μl samples are taken from each reaction at 0 minutes, 30 minutes, 60 minutes, 120 minutes and overnight. The reactions are stopped by boiling for one minute. After the reactions are terminated, each sample is diluted to 50 μl with 40 μl of TBS buffer (120 mM NaCl, 50 mM Tris (pH 7.6)) and the samples are prepared for HPLC analysis.
Each sample is chromatographed on a C-18 reverse phase HPLC column (Vydac, Hesperia, Calif. or the like) using a gradient of 0-40% B in 30 minutes (Solvent A: 0.05% trifluoroacetic acid (TFA) in water and Solvent B: 0.045% TFA in 80% acetonitrile, 20% water) on a Hewlett Packard 1090 Series II HPLC or the like. The signal is detected at a wavelength of 215 nm. The area % of each reaction product is collected and plotted versus time to determine the rates of polypeptide utilization dimer formation and multimer formation. A deamidation ratio is determined by dividing the deamidation rate by the dimerization rate.
The ability of the test polypeptides to form Factor XIII-induced multimers, and the susceptibility of the polypeptides to deamidation were assessed using the method described in detail below.
Approximately 0.5 mg of lyophilized polypeptide was dissolved in 50 mM Tris, 125 mM NaCl (pH 7.6) to give a final concentration of 2 mM by weight. […] Each test polypeptide solution received 50 mM CaCl2 to a final concentration of 2.5 mM. For each reaction, a negative control lacking Factor XIII was included. A positive control of the fibrinogen polypeptide Thr-Ile-Gly-Glu-Gly-Gln-Gln-His-His-Leu-Gly-Gly-Ala-Lys-Gln-Ala-Gly-Asp-Val was used for each set of reactions. The reactions were initiated by the addition of 40 μg/ml of recombinant Factor XIII followed by 0.1 unit of bovine thrombin (Enzyme Research Laboratories, Inc.) to each solution, except the negative controls. The reactions were incubated in a 37° C. water bath. Samples of 10 μl were taken from each reaction at 0 minutes, 30 minutes, 60 minutes, 120 minutes and overnight. The reactions were stopped by boiling for one minutes. The samples were diluted to 50 μl TBS buffer (120 mM NaCl, 50 mM Tris (pH 7.6)), and the samples were prepared for HPLC analysis.
Each reaction was chromatographed on a C-18 reverse phase HPLC column (Vydac, Hesperia, Calif., or the like) using a gradient of 0-40% B in 30 minutes (solvent A: 0.05% TFA in water and Solvent B: 0.045% TFA in 80% acetonitrile/20% water) on a Hewlett Packard 1090 Series II HPLC. The signal was detected at a wavelength of 215 nm. The area % of each reaction product was collected and plotted versus time to determine the rates of polypeptide utilization and dimer formation. A deamidation ratio was determined by dividing the deamidation rate by the dimerization rate. […] The abbreviations used in Table 1 are as follows: d[S]/dt indicates the rate of substrate utilization, d[S2 ]/dt indicates the rate of dimer formation and (-NH2 /S2) indicates the relative rates of deamidation to dimerization. The initial rates were normalized to that of the fibrinogen polypeptide Thr-Ile-Gly-Glu-Gly-Gln-Gln-His-His-Leu-Gly-Gly-Ala-Lys-Gln-Ala-Gly-Asp-Val. […]

No end group written: not given here.

Consider “TIGEGQHHLGAKQAGDV [TIGEGQ-- HHLG-- AKQAGDV]”, for which the “Monomer Consumption d[S]/dt (rate of substrate utilization)” value is recorded as -7.0 uM (monomer)/min, the “Crosslinking d(2[S-])/dt (rate of monomer incorporation into dimers)” value was 4.0 uM (monomer)/min, the “Hydrolysis d[-NH3]/dt (hydrolysis = deamidation)” value is recorded as 3.0 uM (monomer)/min and the Hydrolysis % is listed as 43%.
The corresponding values for GQHHLGAKQA [-- GQ-- HHL-- GAKQA--] are -8.4 uM (monomer)/min, 8.4 uM (monomer)/min, -0.2 uM (monomer)/min and 0%.
Taken in the same sequence, the figures for VGGQHHLGGAKQVPG [VGGQ-- HHLGGAKQVPG] were 11.0 uM (monomer)/min, 11.0 uM (monomer)/min, 0.0 uM (monomer)/min and 0%.
Taken in the same sequence, the figures for GQHHLGGAKA [-- GQ-- HHLGGAK-- A--] were -2.4 uM (monomer)/min, 1.8 uM (monomer)/min, 0.8 uM (monomer)/min and 31%.
For “TIGEGQHHLGGAKAGDV [TIGEGQ-- HHLGGAK-- AGDV]”, the “Monomer Consumption d[S]/dt (rate of substrate utilization)” value is on record as -10.0 uM (monomer)/min, the “Crosslinking d(2[S-])/dt (rate of monomer incorporation into dimers)” value was 8.8 uM (monomer)/min, the “Hydrolysis d[-NH3]/dt (hydrolysis = deamidation)” value is 1.4 uM (monomer)/min and the Hydrolysis % is on record as 14%.
